Laboratory results as given in US11014895B2, “Heterocyclic urea compound, and drug composition and application thereof” (CHINA PHARMACEUTICAL UNIVERSITY, priority 2017, dated 2021).

Tests used:
[1] = biological target: IDO1 enzyme (Homo sapiens, UniProt P14902); assay: Determination of biochemical activity of IDO1 enzyme (absorbance at 320 nm); conditions: room temperature, 3 hours
Protocol: (1) Method for Determining Biochemical Activity of IDO1 Enzyme
Firstly, 15 μl of buffer solution of sodium hydrogen phosphate (PH:7-8), 5 μl of reaction buffer solution containing a proper amount of IDO-1 enzyme and heterocyclic urea compound prepared by the invention were added into wells of a microplate, mixed evenly, and reacted at room temperature for 3 hours; then a light absorption value at 320 nm wavelength was detected by using Envision Multilabel Reader of PE company, an inhibition rate of the heterocyclic urea compound on the enzyme reaction was calculated according to an absorption ratio, and an IC50 value of the heterocyclic urea compound was calculated through analysis by GraphPad.

[2] = biological target: T1, IDO1 enzyme in the Hela cell (Homo sapiens, UniProt P14902); assay: Cell activity: interferon γ-stimulated Hela cells, absorbance of supernatant at 480 nm; assay type: cell-based; conditions: interferon γ 100 ng/ml, 72 hours
T1 construct: endogenous in cells; host or cells: HeLa cells stimulated with interferon γ (100 ng/ml)
Protocol: (2) Method for Determining Cell Activity
Hela cells were cultured and passaged in a DMEM medium supplemented with antibiotics in a 37° C. CO2 incubator, inoculated into a 96-well plate for overnight culture, then 1 μl of heterocyclic urea compound with appropriate concentration was added to each well, and then 100 μl of interferon γ (final concentration was 100 ng/ml) was added. After the cells were continuously cultured for 72 hours, 70 μl of cell culture supernatant was added to a 96-well V-bottom plate, 5 μl of trichloroacetic acid (6.1 N) was added to each well, incubated at 50° C. for 30 min, then taken out and centrifuged at […] for 10 min. The above centrifuged supernatant was transferred to a 384-well microplate (20 μl/well), then 20 μl of 2% didimethylaminobenzaldehyde acetic acid solution was added to each well, shaken and mixed evenly, then photometric absorption was performed at 480 nm, and values were measured.

T1 sequence (P14902 whole entry): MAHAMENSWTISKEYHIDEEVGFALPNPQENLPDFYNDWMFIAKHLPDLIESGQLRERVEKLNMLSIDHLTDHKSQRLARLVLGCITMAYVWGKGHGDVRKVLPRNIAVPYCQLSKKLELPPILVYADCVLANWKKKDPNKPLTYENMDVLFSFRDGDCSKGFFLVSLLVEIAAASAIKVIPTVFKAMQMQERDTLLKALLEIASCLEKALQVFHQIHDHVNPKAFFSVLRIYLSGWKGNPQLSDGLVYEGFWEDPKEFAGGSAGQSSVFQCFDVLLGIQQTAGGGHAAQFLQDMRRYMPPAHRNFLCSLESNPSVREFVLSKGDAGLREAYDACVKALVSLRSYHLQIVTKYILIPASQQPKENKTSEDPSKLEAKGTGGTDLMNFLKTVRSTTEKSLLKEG
Chain of IDO1 enzyme (P14902 whole entry): as above

Row | Compound | IC50 [1] | IC50 [2]
1 | O=C(Nc1ncncn1)Nc1nonc1/C(=N/O)Nc1ccc(F)c(Br)c1 [Embodiment 44, (Z)-1-(4-(N-(3-bromo-4-fluorophenyl)-N′-hydroxyaminoiminomethyl)-1,2,5-oxadiazole-3-substituted)-3-(1,3,5-triazine-2-substituted)urea] | > 1 µM | > 1 µM
2 | O=C(Nc1conc1/C(=N/O)Nc1ccc(F)c(Br)c1)NC1CCCC1 [Embodiment 104, (Z)-1-(4-(N-(3-bromo-4-fluorophenyl)-N′-hydroxyaminoiminomethyl)-isoxazole-3-substituted)-4-(cyclopentyl)urea] | > 1 µM | > 1 µM
3 | NCCNC(=O)Nc1cocc1/C(=N/O)Nc1ccc(F)c(Br)c1 [Embodiment 69, (Z)-1-(4-(N-(3-bromo-4-fluorophenyl)-N′-hydroxyaminoiminomethyl)-furan-3-substituted)-3-(2-aminoethyl)urea] | 0.1 to 1 µM | 0.1 to 1 µM
4 | O=C(Nc1ccccc1)Nc1nocc1/C(=N/O)Nc1ccc(F)c(Cl)c1 [Embodiment 98, (Z)-1-(4-(N-(3-chloro-4-fluorophenyl)-N′-hydroxyaminoiminomethyl)-isoxazole-3-substituted)-3-(phenyl)urea] | 0.1 to 1 µM | 0.1 to 1 µM
5 | O=C(Nc1nonc1/C(=N/O)Nc1ccc(F)c(Br)c1)Nc1cccc2cc[nH]c12 [Embodiment 36, (Z)-1-(4-(N-(3-bromo-4-fluorophenyl)-N′-hydroxyaminoiminomethyl)-1,2,5-oxadiazole-3-substituted)-3-(1H-indole-7-substituted)urea] | 0.1 to 1 µM | 0.1 to 1 µM
6 | CS(=O)(=O)N1CCN(C(=O)Nc2nonc2/C(=N/O)Nc2ccc(F)cc2)CC1 [Embodiment 53] | 0.1 to 1 µM | 0.1 to 1 µM
7 | O=C(Nc1nocc1/C(=N/O)Nc1ccc(F)c(Br)c1)Nc1cccc2[nH]ccc12 [Embodiment 94, (Z)-1-(4-(N-(3-bromo-4-fluorophenyl)-N′-hydroxyaminoiminomethyl)-isoxazole-3-substituted)-3-(4-aminoindole)urea] | 0.1 to 1 µM | 0.1 to 1 µM
8 | CC(C)NC(=O)Nc1nocc1/C(=N/O)Nc1ccc(F)c(Br)c1 [Embodiment 92, (Z)-1-(4-(N-(3-bromo-4-fluorophenyl)-N′-hydroxyaminoiminomethyl)-isoxazole-3-substituted)-3-(isopropyl)urea] | 0.1 to 1 µM | 0.1 to 1 µM
9 | Cc1ccc(NC(=O)Nc2nonc2/C(=N/O)Nc2ccc(F)c(Br)c2)cc1 [Embodiment 4] | > 1 µM | > 1 µM
10 | O=C(Nc1ccccc1)Nc1nonc1/C(=N/O)Nc1ccc(F)c(Br)c1 [Embodiment 19, (Z)-1-(4-(N-(4-bromo-3-fluorophenyl)-N′-hydroxyaminoiminomethyl)-1,2,5-oxadiazole-3-substituted)-3-phenylurea] | 0.1 to 1 µM | 0.1 to 1 µM
11 | O=C(Nc1ccccc1)Nc1nonc1/C(=N/O)Nc1ccc(F)cc1 [Embodiment 51, (Z)-1-(4-(N-(4-fluorophenyl)-N′-hydroxyaminoiminomethyl)-1,2,5-oxadiazole-3-substituted)-3-phenylurea] | 0.1 to 1 µM | 0.1 to 1 µM
12 | N=C(Nc1ccccc1)Nc1nocc1/C(=N/O)Nc1ccc(F)c(Br)c1 [Embodiment 158, (Z)-1-(4-(N-(3-bromo-4-fluorophenyl)-N′-hydroxyaminoiminomethyl)-isoxazole-3-substituted)-3-phenylguanidine] | 0.1 to 1 µM | 0.1 to 1 µM
13 | COc1ccc(NC(=N)Nc2nocc2/C(=N/O)Nc2ccc(F)c(Br)c2)cc1 [Embodiment 157, (Z)-1-(4-(N-(3-bromo-4-fluorophenyl)-N′-hydroxyaminoiminomethyl)-isoxazole-3-substituted)-3-(4-methoxyphenyl)guanidine] | 0.1 to 1 µM | 0.1 to 1 µM
14 | O=C(Nc1ccccc1)Nc1conc1/C(=N/O)Nc1ccc(F)c(Cl)c1 [Embodiment 113, (Z)-1-(4-(N-(3-chloro-4-fluorophenyl)-N′-hydroxyaminoiminomethyl)-isoxazole-3-substituted)-4-phenylurea] | 0.1 to 1 µM | 0.1 to 1 µM

Now from value to compound:

Row | IC50 [1] | IC50 [2] | Compound
15 | 0.1 to 1 µM | 0.1 to 1 µM | NC1CCC(NC(=O)Nc2conc2/C(=N/O)Nc2ccc(F)c(Br)c2)CC1 (stereo not shown) [Embodiment 108]
16 | 0.1 to 1 µM | 0.1 to 1 µM | COc1ccc(NC(=N)Nc2nonc2/C(=N/O)Nc2ccc(F)c(Br)c2)c(F)c1 [Embodiment 144]
17 | 0.1 to 1 µM | 0.1 to 1 µM | O=C(Nc1cocc1/C(=N/O)Nc1ccc(F)c(Br)c1)NC1CC1 [Embodiment 65]
18 | 0.1 to 1 µM | 0.1 to 1 µM | COc1ccc(NC(=O)Nc2nocc2/C(=N/O)Nc2ccc(F)c(Br)c2)cc1 [Embodiment 79, (Z)-1-(4-(N-(3-bromo-4-fluorophenyl)-N′-hydroxyaminoiminomethyl)-isoxazole-3-substituted)-3-(4-methoxyphenyl)urea]
19 | 0.1 to 1 µM | 0.1 to 1 µM | COc1ccc(NC(=O)Nc2nonc2/C(=N/O)Nc2ccc(F)c(Br)c2)c(F)c1 [Embodiment 20, (Z)-1-(4-(N-(3-bromo-4-fluorophenyl)-N′-hydroxyaminoiminomethyl)-1,2,5-oxadiazole-3-substituted)-3-(4-methoxy-2-fluorophenyl)urea]
20 | 0.1 to 1 µM | 0.1 to 1 µM | O=C(Nc1cocc1/C(=N/O)Nc1ccc(F)c(Br)c1)NC1CCNCC1 [Embodiment 64, (Z)-1-(4-(N-(3-bromo-4-fluorophenyl)-N′-hydroxyaminoiminomethyl)-furan-3-substituted)-3-(piperidine-4-substituted)urea]
21 | 0.1 to 1 µM | 0.1 to 1 µM | N=C(Nc1ccccc1)Nc1conc1/C(=N/O)Nc1ccc(F)c(Cl)c1 [Embodiment 155, (Z)-1-(4-(N-(3-chloro-4-fluorophenyl)-N′-hydroxyaminoiminomethyl)-isoxazole-3-substituted)-4-phenylguanidine]
22 | < 0.001 µM | < 0.001 µM | O=C(NCCO)Nc1nonc1/C(=N/O)Nc1ccc(F)c(Cl)c1 [Embodiment 28, (Z)-1-(4-(N-(3-chloro-4-fluorophenyl)-N′-hydroxyaminoiminomethyl)-1,2,5-oxadiazole-3-substituted)-3-(23-hydroxyethane)urea]
23 | < 0.001 µM | < 0.001 µM | NCCNC(=O)Nc1conc1/C(=N/O)Nc1ccc(F)c(Br)c1 [Embodiment 111]
24 | 0.1 to 1 µM | 0.1 to 1 µM | O=C(NCCO)Nc1cocc1/C(=N/O)Nc1ccc(F)c(Br)c1 [Embodiment 68, (Z)-1-(4-(N-(3-bromo-4-fluorophenyl)-N′-hydroxyaminoiminomethyl)-furan-3-substituted)+3-(2-hydroxyethyl)urea]
25 | 0.1 to 1 µM | 0.1 to 1 µM | O/N=C(\Nc1ccc(F)c(Cl)c1)c1nocc1NC(=S)Nc1ccccc1 [Embodiment 131, (Z)-1-(4-(N-(3-chloro-4-fluorophenyl)-N′-hydroxyaminoiminomethyl)-isoxazole-3-substituted)-4-(phenyl)thiourea]
26 | 0.1 to 1 µM | 0.1 to 1 µM | O=C(Nc1nocc1/C(=N/O)Nc1ccc(F)c(Br)c1)Nc1c[nH]c2ccccc12 [Embodiment 95, (Z)-1-(4-(N-(3-bromo-4-fluorophenyl)-N′-hydroxyaminoiminomethyl)-isoxazole-3-substituted)-3-(3-aminoindole)urea]
27 | < 0.001 µM | < 0.001 µM | CS(=O)(=O)NCCNC(=O)Nc1nocc1/C(=N/O)Nc1ccc(F)c(Br)c1 [Embodiment 93, (Z)-1-(4-(N-(3-bromo-4-fluorophenyl)-N′-hydroxyaminoiminomethyl)-isoxazole-3-substituted)-3-(2-methamidoethyl)urea]
28 | < 0.001 µM | < 0.001 µM | O=C(Nc1cocc1/C(=N/O)Nc1ccc(F)c(Br)c1)NC1CCC(O)CC1 (stereo not shown) [Embodiment 63, (Z)-1-(4-(N-(3-bromo-4-fluorophenyl)-N′-hydroxyaminoiminomethyl)-furan-3-substituted)-3-(4-hydroxycyclohexyl)urea]
29 | 0.1 to 1 µM | 0.1 to 1 µM | NC1CCC(NC(=O)Nc2cocc2/C(=N/O)Nc2ccc(F)c(Br)c2)CC1 (stereo not shown) [Embodiment 66, (Z)-1-(4-(N-(3-bromo-4-fluorophenyl)-N′-hydroxyaminoiminomethyl)-furan-3-substituted)-3-(4-aminocyclohexyl)urea]
30 | 0.1 to 1 µM | 0.1 to 1 µM | COc1ccc(NC(=O)Nc2nonc2/C(=N/O)Nc2ccc(F)cc2)cc1 [Embodiment 54, (Z)-1-(4-(N-(4-fluorophenyl)-N′-hydroxyaminoiminomethyl)-1,2,5-oxadiazole-3-substituted)-3-(4-methoxyphenyl)urea]
31 | < 0.001 µM | < 0.001 µM | CS(=O)(=O)NCCCNC(=O)Nc1nonc1/C(=N/O)Nc1ccc(F)c(Br)c1 [Embodiment 17, (Z)-1-(4-(N-(3-bromo-4-fluorophenyl)-N′-hydroxyaminoiminomethyl)-1,2,5-oxadiazole-3-substituted)-3-(3-methamido-propyl)urea]
32 | < 0.001 µM | < 0.001 µM | N=C(NCCN)Nc1nonc1/C(=N/O)Nc1ccc(F)c(Br)c1 [Embodiment 153]
